US20250230193A1, “CYCLIC COMPOUND HAVING SELECTIVE KRAS INHIBITORY EFFECT ON HRAS AND NRAS” (CHUGAI SEIYAKU KABUSHIKI KAISHA, priority 2022, published 2025)
Where a SMILES comes first, the peptide text is derived from it. Bridges are numbered along the chain shown (N, C = ends). [ ]: non-standard residue; d: D form. The star is where a group is joined. hPhe(3-Cl-4-CF3) = N[C@@H](CCc1ccc(C(F)(F)F)c(Cl)c1)C(=O)O; NPrPhe(4-CF3) = CCCN[C@@H](Cc1ccc(C(F)(F)F)cc1)C(=O)O; Pro(4-spirocPr) = O=C(O)[C@@H]1CC2(CC2)CN1; NMeGly(cPent) = CN[C@H](C(=O)O)C1CCCC1; NMeD = CN[C@@H](CC(=O)O)C(=O)O; NMeL = CN[C@@H](CC(C)C)C(=O)O; Morpholide = C1CN(*)CCO1; Ac5c = NC1(C(=O)O)CCCC1; NEtG = CCNCC(=O)O; Sar = CNCC(=O)O

How the values were obtained:
[1] = molecular target: GDP-bound NRAS wild-type protein (Homo sapiens, UniProt P01111); assay: Binding to NRAS by surface plasmon resonance (SPR), Single Cycle Kinetics; conditions: for NRAS/KRAS (ratio of KD value with respect to NRAS to KD value with respect to KRAS): GDP-bound NRAS wild-type vs GDP-bound KRAS wild-type
Chain of GDP-bound NRAS wild-type protein (P01111 whole entry): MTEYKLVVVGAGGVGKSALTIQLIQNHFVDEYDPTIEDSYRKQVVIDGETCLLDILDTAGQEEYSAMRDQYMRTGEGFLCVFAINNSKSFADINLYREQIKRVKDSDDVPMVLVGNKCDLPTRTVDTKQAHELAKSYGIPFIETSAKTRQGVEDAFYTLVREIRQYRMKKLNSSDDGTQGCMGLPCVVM

[2] = molecular target: GDP-bound HRAS wild-type protein (Homo sapiens, UniProt P01112); assay: Binding to HRAS by surface plasmon resonance (SPR), Single Cycle Kinetics; conditions: for HRAS/KRAS (ratio of KD value with respect to HRAS to KD value with respect to KRAS): GDP-bound HRAS wild-type vs GDP-bound KRAS wild-type
Chain of GDP-bound HRAS wild-type protein (P01112 whole entry): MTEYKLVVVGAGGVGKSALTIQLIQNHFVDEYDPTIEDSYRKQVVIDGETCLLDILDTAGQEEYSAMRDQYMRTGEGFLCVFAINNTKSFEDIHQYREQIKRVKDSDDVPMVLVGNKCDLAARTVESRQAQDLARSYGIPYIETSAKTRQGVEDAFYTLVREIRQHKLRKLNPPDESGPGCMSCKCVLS

[3] = KD ratio NRAS/KRAS, class symbols
[4] = KD ratio HRAS/KRAS, class symbols

## CCO[C@@H]1C[C@H]2C(=O)NC3(CCC3)C(=O)N(C)[C@@H](C3CCCC3)C(=O)N(CC)[C@H](C(=O)N3CCOCC3)CC(=O)N(C)[C@@H](CC(C)C)C(=O)N[C@@H]([C@@H](C)CC)C(=O)N(C)CC(=O)N(C)[C@H]3CCCCN(C3=O)[C@@H](Cc3ccc(C(F)(F)F)cc3)C(=O)N(C)CC(=O)N[C@@H](CCc3cc(F)c(C(F)(F)F)c(F)c3)C(=O)N2C1 [PP0648]
[1]; KD ratio NRAS/KRAS, SPR
  NRAS/KRAS (ratio of KD value with respect to GDP-bound NRAS wild-type protein to KD value with respect to KRAS): B (a compound having 3 or more and less than 10 is denoted as B)
[2]; KD ratio HRAS/KRAS, SPR
  HRAS/KRAS (ratio of KD value with respect to GDP-bound HRAS wild-type protein to KD value with respect to KRAS): B (a compound having 3 or more and less than 10 is denoted as B)

## CCO[C@@H]1C[C@H]2C(=O)NC3(CCCC3)C(=O)N(C)[C@@H](C3CCCC3)C(=O)N(C)[C@H](C(=O)N3CCOCC3)CC(=O)N(C)[C@@H](CC)C(=O)N[C@@H]([C@@H](C)CC)C(=O)N(C)CC(=O)N(C)[C@H]3C[C@@H](C)CCN(C3=O)[C@@H](Cc3ccc(C(F)(F)F)cc3)C(=O)N(C)CC(=O)N[C@@H](CCc3cc(F)c(C(F)(F)F)c(F)c3)C(=O)N2C1 [PP1029]
[1]; SPR
  NRAS/KRAS (ratio of KD value with respect to NRAS to KD value with respect to KRAS): C (A compound having a KD ratio of 0.1 or more and less than 3 is denoted as C)
[2]; SPR
  HRAS/KRAS (ratio of KD value with respect to HRAS to KD value with respect to KRAS): B (a compound having 3 or more and less than 10 is denoted as B)

## CCO[C@@H]1C[C@H]2C(=O)NC3(CCC3)C(=O)N(C)[C@@H](C3CCCC3)C(=O)N(C)[C@H](C(=O)N(C)C)CC(=O)N(C)[C@@H](CC)C(=O)N[C@@H]([C@@H](C)CC)C(=O)N(C)CC(=O)N(C)[C@H]3CCCCCN(C3=O)[C@@H](Cc3ccc(F)c(Cl)c3)C(=O)N(C)CC(=O)N[C@@H](CCc3cc(F)c(C(F)(F)F)c(F)c3)C(=O)N2C1 [PP0909]
[1]; SPR
  NRAS/KRAS (ratio of KD value with respect to NRAS to KD value with respect to KRAS): B (a compound having 3 or more and less than 10 is denoted as B)
[2]; SPR
  HRAS/KRAS (ratio of KD value with respect to HRAS to KD value with respect to KRAS): B (a compound having 3 or more and less than 10 is denoted as B)

## CCO[C@@H]1C[C@H]2C(=O)NC3(CCC3)C(=O)N(C)[C@@H](C3CCCC3)C(=O)N(CCC3CCCC3)[C@H](C(=O)N(C)C)CC(=O)N(C)[C@@H](CC)C(=O)N[C@@H]([C@@H](C)CC)C(=O)N(C)CC(=O)N(C)[C@H]3CCCCN(C3=O)[C@@H](Cc3ccc(C(F)(F)F)cc3)C(=O)N(C)CC(=O)N[C@@H](CCc3cc(F)c(C(F)(F)F)c(F)c3)C(=O)N2C1 [PP0646]
[1]; KD ratio NRAS/KRAS, SPR
  NRAS/KRAS (ratio of KD value with respect to GDP-bound NRAS wild-type protein to KD value with respect to KRAS): C (A compound having a KD ratio of 0.1 or more and less than 3 is denoted as C)
[2]; KD ratio HRAS/KRAS, SPR
  HRAS/KRAS (ratio of KD value with respect to GDP-bound HRAS wild-type protein to KD value with respect to KRAS): B (a compound having 3 or more and less than 10 is denoted as B)

## CCO[C@@H]1C[C@H]2C(=O)NC3(CCC3)C(=O)N(C)[C@@H](C3CCCC3)C(=O)N(C)[C@H](C(=O)N(C)C)CC(=O)N(C)[C@@H](CC3CC3)C(=O)N[C@@H]([C@@H](C)CC)C(=O)N(C)CC(=O)N(C)[C@H]3CCCCN(C3=O)[C@@H](Cc3ccc(C(F)(F)F)cc3)C(=O)N(C)CC(=O)N[C@@H](CCc3cc(F)c(C(F)(F)F)c(F)c3)C(=O)N2C1 [PP0697]
[1]; KD ratio NRAS/KRAS, SPR
  NRAS/KRAS (ratio of KD value with respect to GDP-bound NRAS wild-type protein to KD value with respect to KRAS): C (A compound having a KD ratio of 0.1 or more and less than 3 is denoted as C)
[2]; KD ratio HRAS/KRAS, SPR
  HRAS/KRAS (ratio of KD value with respect to GDP-bound HRAS wild-type protein to KD value with respect to KRAS): C (A compound having a KD ratio of 0.1 or more and less than 3 is denoted as C)

## CCCN1C(=O)CN(C)C(=O)CN(CC)C(=O)[C@H]([C@@H](C)CC)NC(=O)[C@H](CC(C)C)N(C)C(=O)C[C@@H](C(=O)N2CCOCC2)N(C)C(=O)[C@H](C2CCCC2)N(C)C(=O)C2(CCCC2)NC(=O)[C@@H]2CC3(CC3)CN2C(=O)[C@H](CCc2ccc(C(F)(F)F)c(Cl)c2)NC(=O)CN(C)C(=O)[C@@H]1Cc1ccc(C(F)(F)F)cc1 [PP0295] ([NMeL]I[NEtG][Sar][NPrPhe(4-CF3)][Sar][hPhe(3-Cl-4-CF3)][Pro(4-spirocPr)][Ac5c][NMeGly(cPent)][NMeD]-Morpholide; lactam N-11)
[1]; KD ratio NRAS/KRAS, SPR
  NRAS/KRAS (ratio of KD for GDP-bound NRAS wild-type to KD for KRAS): B (a compound having 3 or more and less than 10 is denoted as B)
[2]; KD ratio HRAS/KRAS, SPR
  HRAS/KRAS (ratio of KD for GDP-bound HRAS wild-type to KD for KRAS): C (A compound having a KD ratio of 0.1 or more and less than 3 is denoted as C)

## CC[C@H](C)[C@@H]1NC(=O)[C@H](CC(C)C)N(C)C(=O)C[C@@H](C(=O)N(C)C)N(C)C(=O)[C@H](C2CCCC2)N(C)C(=O)C2(CCC2)NC(=O)[C@@H]2CCCN2C(=O)[C@H](CCc2cc(F)c(C(F)(F)F)c(F)c2)NC(=O)CN(C)C(=O)[C@H](Cc2ccc(C(F)(F)F)cc2)N2CCCC[C@@H](C2=O)N(C)C(=O)CN(C)C1=O [PP0574]
[1]; KD ratio NRAS/KRAS, SPR
  NRAS/KRAS (ratio of KD value with respect to GDP-bound NRAS wild-type protein to KD value with respect to KRAS): C (A compound having a KD ratio of 0.1 or more and less than 3 is denoted as C)
[2]; KD ratio HRAS/KRAS, SPR
  HRAS/KRAS (ratio of KD value with respect to GDP-bound HRAS wild-type protein to KD value with respect to KRAS): B (a compound having 3 or more and less than 10 is denoted as B)

## CC[C@H](C)[C@@H]1NC(=O)[C@H](CC(C)C)N(C)C(=O)C[C@@H](C(=O)N2CCOCC2)N(C)C(=O)[C@H](C2CCCC2)N(C)C(=O)C2(CCCC2)NC(=O)[C@@H]2CCCN2C(=O)[C@H](CCc2ccc(C(F)(F)F)c(Cl)c2)NC(=O)CN(C)C(=O)[C@H](Cc2ccc(F)cc2)N2CCCC[C@@H](C2=O)N(C)C(=O)CN(C)C1=O [PP0530]
[1]; KD ratio NRAS/KRAS, SPR
  NRAS/KRAS (ratio of KD value with respect to GDP-bound NRAS wild-type protein to KD value with respect to KRAS): C (A compound having a KD ratio of 0.1 or more and less than 3 is denoted as C)
[2]; KD ratio HRAS/KRAS, SPR
  HRAS/KRAS (ratio of KD value with respect to GDP-bound HRAS wild-type protein to KD value with respect to KRAS): B (a compound having 3 or more and less than 10 is denoted as B)

## CCC[C@H]1C(=O)N[C@@H]([C@@H](C)CC)C(=O)N(C)CC(=O)N(C)[C@H]2C/C=C\CCN(C2=O)[C@@H](Cc2ccc(C(F)(F)F)cc2)C(=O)N(C)CC(=O)N[C@@H](CCc2ccc3c(C)c(C)n(C)c3c2)C(=O)N2C[C@H](OCC)C[C@H]2C(=O)NC2(CC(C)(C)C2)C(=O)N(C)[C@@H](C2CCCC2)C(=O)N(C)[C@H](C(=O)N(C)C)CC(=O)N1C [PP2893]
[1]; [3]
  NRAS/KRAS (ratio of KD value with respect to GDP-bound NRAS wild-type protein to KD value with respect to KRAS): A (a compound having 10 or more and less than 20 is denoted as A)
[2]; [4]
  HRAS/KRAS (ratio of KD value with respect to GDP-bound HRAS wild-type protein to KD value with respect to KRAS): A (a compound having 10 or more and less than 20 is denoted as A)

## CCC[C@H]1C(=O)N[C@@H]([C@@H](C)CC)C(=O)N(C2CC2)CC(=O)N(C)[C@H]2C/C=C\CCN(C2=O)[C@@H](Cc2ccc(C(F)(F)F)cc2)C(=O)N(C)CC(=O)N[C@@H](CCc2ccc(C(F)(F)F)c(OC)c2)C(=O)N2C[C@H](OCC)C[C@H]2C(=O)NC2(CC(C)(C)C2)C(=O)N(C)[C@@H](CC2CCC2)C(=O)N(C)[C@H](C(=O)N(C)C)CC(=O)N1C [PP2770]
[1]; [3]
  NRAS/KRAS (ratio of KD value with respect to GDP-bound NRAS wild-type protein to KD value with respect to KRAS): A (a compound having 10 or more and less than 20 is denoted as A)
[2]; [4]
  HRAS/KRAS (ratio of KD value with respect to GDP-bound HRAS wild-type protein to KD value with respect to KRAS): A (a compound having 10 or more and less than 20 is denoted as A)
